Source: PubChem BioAssay AID330 (DTP/NCI, 2004)
Where “and” joins values, the source holds several entries; their conditions need not be identical. Equal values may be shown once. Inconclusive results and toxic doses are left out.

System: P388 leukemia ip, CD2F1 mice, survival T/C
Experiment: NCI In Vivo Anticancer Drug Screen. Data for tumor model P388 Leukemia (intraperitoneal) in CD2F1 (CDF1) mice
Conditions: endpoint: median survival time, higher = longer survival
Summary of the method: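 Mice carrying the transplanted tumor received test compound or vehicle. Survival was recorded in each group, and the value is the treated-group measurement divided by that of the vehicle-treated control group.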

[1] = dose: 50.0 mg/kg/injection, schedule: Q01DX005 (ip), vehicle: saline with Tween-80
[2] = dose: 100.0 mg/kg/injection, schedule: Q01DX005 (ip), vehicle: saline with Tween-80
[3] = dose: 50.0 mg/kg/injection, schedule: Q01DX009 (ip), vehicle: saline
[4] = dose: 100.0 mg/kg/injection, schedule: Q01DX009 (ip), vehicle: saline
[5] = dose: 50.0 mg/kg/injection, schedule: Q01DX009 (ip), vehicle: saline with Tween-80
[6] = dose: 100.0 mg/kg/injection, schedule: Q01DX009 (ip), vehicle: saline with Tween-80
[7] = dose: 200.0 mg/kg/injection, schedule: Q01DX009 (ip), vehicle: saline with Tween-80
[8] = dose: 12.5 mg/kg/injection, schedule: Q01DX009 (ip), vehicle: Klucel (hydroxypropylcellulose) (HPC)
[9] = dose: 25.0 mg/kg/injection, schedule: Q01DX009 (ip), vehicle: Klucel (hydroxypropylcellulose) (HPC)
[10] = dose: 50.0 mg/kg/injection, schedule: Q01DX009 (ip), vehicle: Klucel (hydroxypropylcellulose) (HPC)
[11] = dose: 100.0 mg/kg/injection, schedule: Q01DX009 (ip), vehicle: Klucel (hydroxypropylcellulose) (HPC)
[12] = dose: 200.0 mg/kg/injection, schedule: Q01DX005 (ip), vehicle: saline with Tween-80
[13] = dose: 100.0 mg/kg/injection, schedule: Q01DX001 (ip), vehicle: saline
[14] = dose: 200.0 mg/kg/injection, schedule: Q01DX001 (ip), vehicle: saline
[15] = dose: 400.0 mg/kg/injection, schedule: Q01DX001 (ip), vehicle: saline
[16] = dose: 100.0 mg/kg/injection, schedule: Q04DX003 (ip), vehicle: Klucel (hydroxypropylcellulose) (HPC)
[17] = dose: 200.0 mg/kg/injection, schedule: Q04DX003 (ip), vehicle: Klucel (hydroxypropylcellulose) (HPC)
[18] = dose: 400.0 mg/kg/injection, schedule: Q04DX003 (ip), vehicle: Klucel (hydroxypropylcellulose) (HPC)

CC(CNc1nc(Nc2ccc(Cl)c(Cl)c2)nc(C(Cl)(Cl)Cl)n1)N(C)C (stereo unspecified)
T/C (dose: 3.13 mg/kg/injection, schedule: Q01DX009 (ip), vehicle: distilled water + Tween-80): 109 % of control
T/C (dose: 3.13 mg/kg/injection, schedule: Q01DX009 (ip), vehicle: water): 90 % of control
T/C (dose: 6.25 mg/kg/injection, schedule: Q01DX009 (ip), vehicle: distilled water + Tween-80): 118 % of control
T/C (dose: 6.25 mg/kg/injection, schedule: Q01DX009 (ip), vehicle: water): 99 % of control
T/C (dose: 12.5 mg/kg/injection, schedule: Q01DX009 (ip), vehicle: distilled water + Tween-80): 98 % of control and 120 % of control
T/C (dose: 12.5 mg/kg/injection, schedule: Q01DX009 (ip), vehicle: water): 99 % of control
T/C (dose: 25.0 mg/kg/injection, schedule: Q01DX009 (ip), vehicle: distilled water + Tween-80): 113 % of control and 94 % of control
T/C (dose: 25.0 mg/kg/injection, schedule: Q01DX009 (ip), vehicle: water): 101 % of control
T/C (dose: 50.0 mg/kg/injection, schedule: Q01DX009 (ip), vehicle: distilled water + Tween-80): 109 % of control and 94 % of control
T/C (dose: 50.0 mg/kg/injection, schedule: Q01DX009 (ip), vehicle: water): 101 % of control

CC12CC(c3ccccc3N1)C1CC2(C)Nc2ccccc21
T/C (dose: 50.0 mg/kg/injection, schedule: Q01DX005 (ip), vehicle: Klucel (hydroxypropylcellulose) (HPC)): 95 % of control
T/C (dose: 100.0 mg/kg/injection, schedule: Q01DX005 (ip), vehicle: Klucel (hydroxypropylcellulose) (HPC)): 100 % of control
T/C (dose: 200.0 mg/kg/injection, schedule: Q01DX005 (ip), vehicle: Klucel (hydroxypropylcellulose) (HPC)): 102 % of control

C#CC(C)(C)Oc1ccc2c(=O)c(-c3ccc(OC)cc3)coc2c1
T/C [1]: 94 % of control
T/C [2]: 89 % of control

Cc1cn(CCCCCOc2c3ccoc3cc3oc(=O)ccc23)c(=O)[nH]c1=O
T/C (dose: 100.0 mg/kg/injection, schedule: Q01DX001 (ip), vehicle: Klucel (hydroxypropylcellulose) (HPC)): 92 % of control
T/C (dose: 200.0 mg/kg/injection, schedule: Q01DX001 (ip), vehicle: Klucel (hydroxypropylcellulose) (HPC)): 90 % of control
T/C (dose: 400.0 mg/kg/injection, schedule: Q01DX001 (ip), vehicle: Klucel (hydroxypropylcellulose) (HPC)): 87 % of control

Cc1cc(C(=O)Nc2ccc(NC3=NCCN3)cc2)cc(C(=O)Nc2ccc(NC3=NCCN3)cc2)c1
T/C (dose: 3.12 mg/kg/injection, schedule: Q01DX005 (ip), vehicle: saline with Tween-80): 100 % of control
T/C (dose: 6.25 mg/kg/injection, schedule: Q01DX005 (ip), vehicle: saline with Tween-80): 107 % of control
T/C (dose: 12.5 mg/kg/injection, schedule: Q01DX005 (ip), vehicle: saline with Tween-80): 106 % of control

COC(OC)C(C)(C)NC1CCCCC1
T/C [3]: 105 % of control
T/C [4]: 104 % of control

CCCc1cc(=O)[nH]c(Sc2c([N+](=O)[O-])ncn2C)n1
T/C [5]: 103 % of control
T/C [6]: 95 % of control
T/C [7]: 91 % of control

CCOC1NC(=O)Oc2ccccc21 (stereo unspecified)
T/C (dose: 3.12 mg/kg/injection, schedule: Q01DX005 (ip), vehicle: Klucel (hydroxypropylcellulose) (HPC)): 100 % of control
T/C (dose: 6.25 mg/kg/injection, schedule: Q01DX005 (ip), vehicle: Klucel (hydroxypropylcellulose) (HPC)): 96 % of control
T/C (dose: 12.5 mg/kg/injection, schedule: Q01DX005 (ip), vehicle: Klucel (hydroxypropylcellulose) (HPC)): 103 % of control and 105 % of control
T/C [8]: 96 % of control
T/C [9]: 100 % of control and 105 % of control
T/C [10]: 100 % of control and 103 % of control (2×)
T/C (dose: 72.0 mg/kg/injection, schedule: Q01DX005 (ip), vehicle: Klucel (hydroxypropylcellulose) (HPC)): 94 % of control
T/C [11]: 108 % of control and 109 % of control and 113 % of control
T/C (dose: 120.0 mg/kg/injection, schedule: Q01DX005 (ip), vehicle: Klucel (hydroxypropylcellulose) (HPC)): 102 % of control
T/C (dose: 400.0 mg/kg/injection, schedule: Q01DX009 (ip), vehicle: Klucel (hydroxypropylcellulose) (HPC)): 200 % of control

CC1=C(C)C(=O)C(C(C)(C)CC(=O)N(C)/N=N/c2nc[nH]c2C(N)=O)=C(C)C1=O
T/C [2]: 155 % of control
T/C [12]: 174 % of control

NC(=S)c1cccc(/C=N/Nc2ccc([N+](=O)[O-])cc2[N+](=O)[O-])c1
T/C [13]: 99 % of control
T/C [14]: 105 % of control
T/C [15]: 96 % of control

CC(=O)OC12CCCCC(CCCC1)O2
T/C [16]: 100 % of control
T/C [17]: 99 % of control
T/C [18]: 100 % of control

Cc1nonc1CCO
T/C (dose: 50.0 mg/kg/injection, schedule: Q01DX005 (ip), vehicle: saline): 105 % of control
T/C (dose: 100.0 mg/kg/injection, schedule: Q01DX005 (ip), vehicle: saline): 102 % of control
T/C (dose: 200.0 mg/kg/injection, schedule: Q01DX005 (ip), vehicle: saline): 103 % of control

N#CC1C(=O)NC(=S)NC1c1ccc2c(c1)CCC2 (stereo unspecified)
T/C [3]: 100 % of control
T/C [4]: 95 % of control
T/C (dose: 200.0 mg/kg/injection, schedule: Q01DX009 (ip), vehicle: saline): 94 % of control

CC(=O)Nc1cc2cc(NS(=O)(=O)c3cc(C(F)(F)F)cc(C(F)(F)F)c3)ccc2oc1=O
T/C (dose: 1.5 mg/kg/injection, schedule: Q01DX005 (ip), vehicle: Klucel + Tween-80): 94 % of control
T/C (dose: 3.0 mg/kg/injection, schedule: Q01DX005 (ip), vehicle: Klucel + Tween-80): 99 % of control and 91 % of control
T/C (dose: 6.0 mg/kg/injection, schedule: Q01DX005 (ip), vehicle: Klucel + Tween-80): 96 % of control
T/C (dose: 12.0 mg/kg/injection, schedule: Q01DX005 (ip), vehicle: Klucel + Tween-80): 91 % of control
T/C (dose: 12.5 mg/kg/injection, schedule: Q01DX005 (ip), vehicle: Klucel + Tween-80): 87 % of control
T/C (dose: 50.0 mg/kg/injection, schedule: Q01DX005 (ip), vehicle: Klucel + Tween-80): 95 % of control

CCCCCCCCCCCCCCCCCCNCCC#N
T/C [8]: 101 % of control
T/C [9]: 98 % of control and 100 % of control
T/C [10]: 98 % of control and 89 % of control (2×)
T/C [11]: 99 % of control and 87 % of control

CCOC(=O)c1cn[nH]c(=O)c1C
T/C [5]: 100 % of control
T/C [6]: 96 % of control
T/C [7]: 104 % of control

CCC1COc2nc(=O)c(C=NCCCN(C)C)c(N)n21 (stereo unspecified)
T/C (dose: 60.0 mg/kg/injection, schedule: Q01DX005 (ip), vehicle: saline): 100 % of control
T/C (dose: 120.0 mg/kg/injection, schedule: Q01DX005 (ip), vehicle: saline): 105 % of control
T/C (dose: 240.0 mg/kg/injection, schedule: Q01DX005 (ip), vehicle: saline): 99 % of control

CC1=C2CCC(O)C2(C)CCC(=O)C1 (stereo unspecified)
T/C [16]: 105 % of control
T/C [17]: 99 % of control

CCSC(C(OC(C)=O)C(OC(C)=O)C(OC(C)=O)C(COC(C)=O)OC(C)=O)n1cnc2c(=S)nc[nH]c21 (stereo unspecified)
T/C [1]: 107 % of control
T/C [12]: 87 % of control

COC(=O)CCCCCC(O)C1CCC2OC(=O)CC21C (stereo unspecified)
T/C [6]: 118 % of control
T/C [7]: 100 % of control
T/C (dose: 400.0 mg/kg/injection, schedule: Q01DX009 (ip), vehicle: saline with Tween-80): 100 % of control

CCOC(=O)N1NC(=O)CC1(C)C
T/C [13]: 95 % of control
T/C [14]: 100 % of control
T/C [15]: 90 % of control

CCOc1c(Cc2ccccc2)c(=O)nc2c(-c3ccccc3)cncn12
T/C (dose: 30.0 mg/kg/injection, schedule: Q01DX005 (ip), vehicle: saline with Tween-80): 101 % of control
T/C (dose: 60.0 mg/kg/injection, schedule: Q01DX005 (ip), vehicle: saline with Tween-80): 86 % of control and 90 % of control
T/C (dose: 120.0 mg/kg/injection, schedule: Q01DX005 (ip), vehicle: saline with Tween-80): 92 % of control
T/C (dose: 240.0 mg/kg/injection, schedule: Q01DX005 (ip), vehicle: saline with Tween-80): 87 % of control

COc1ccc(CN2CCc3c(cccc3[N+](=O)[O-])C2)cc1
T/C [16]: 98 % of control
T/C [17]: 103 % of control
T/C [18]: 96 % of control

CCCCN1C(=O)C(=O)N(CCc2ccc(OC)c(OC)c2)C1=O
T/C [10]: 91 % of control
T/C [11]: 86 % of control
T/C (dose: 200.0 mg/kg/injection, schedule: Q01DX009 (ip), vehicle: Klucel (hydroxypropylcellulose) (HPC)): 91 % of control
